Results from patent publication US20190314382A1, “COMPOUNDS AND PHARMACEUTICAL COMPOSITIONS THEREOF FOR THE TREATMENT OF INFLAMMATORY DISEASES” (Galapagos NV, priority 2016, published 2019).

Columns and labels:
Type in all cases: in vivo, human
Conditions in all cases: observed case
IL-10 = assay: Biomarker study in RA subjects: serum IL-10, Luminex 18-Plex
Protocol: (§1) Double-blind, placebo-controlled add on study in subjects with moderately to severely active RA who have an inadequate response to MTX (oral or parenteral).
(§2) 595 subjects randomized to one of 6 dose regimens of Compound 1 (dosed as a [Compound 1:HCl:3H2O]) (3 dose levels administered either once or twice daily) or placebo on top of each subject's stable dose of MTX.
(§3) Compound 1 (dosed as a [Compound 1:HCl:3H2O]) is dosed for twelve weeks once daily (q.d.) (50 mg, 100 mg or 200 mg) or twice daily (b.i.d.) (25 mg, 50 mg or 100 mg); or placebo.
(§4) 18 parameters from human serum samples (GM-CSF, IFNγ, IL-1β, IL-2, IL-4, IL-5, IL-6, IL-7, IL-8, IL-10, IL-12 (p70), IL-13, IL-17A, IL-21, IL-23, MIP-1α, MIP-1β and TNF-α) are analyzed on a Luminex Plateform (BioPlex® L200) using a Luminex 18-Plex Kit (Millipore: HSTCMAG-28SK).
(§5) Coupled beads react with the sample containing the biomarker of interest. […] Phycoerythrin (PE) serves as a fluorescent indicator.
(§6) The concentration of bead bound analyte is proportional to the MFI (Median Fluorescent Intensity) and back-calculated from interpolation with the calibration curve fitted with a 4 or 5 parameters logistic (4PL or 5PL) regression model selected during method pre-validation.
(§7) Treatment effect was assessed using an ANCOVA model on the changes from baseline, with factors: treatment, baseline value of the PD marker, geographical region and previous use of biologics.

MIP-1β = assay: Biomarker study in RA subjects: serum MIP-1β, Luminex 18-Plex
Protocol: as §1, §2, §3, §4, §5, §6, §7

IL-17A = assay: Biomarker study in RA subjects: serum IL-17A, Luminex 18-Plex
Protocol: as §1, §2, §3, §4, §5, §6, §7

IL-1β = assay: Biomarker study in RA subjects: serum IL-1β, Luminex 18-Plex
Protocol: as §1, §2, §3, §4, §5, §6, §7

IL-2 = assay: Biomarker study in RA subjects: serum IL-2, Luminex 18-Plex
Protocol: as §1, §2, §3, §4, §5, §6, §7

IL-4 = assay: Biomarker study in RA subjects: serum IL-4, Luminex 18-Plex
Protocol: as §1, §2, §3, §4, §5, §6, §7

IL-5 = assay: Biomarker study in RA subjects: serum IL-5, Luminex 18-Plex
Protocol: as §1, §2, §3, §4, §5, §6, §7

[1] = 50 mg bid, Week 4, N = 73, RA subjects on MTX
[2] = 50 mg bid, Week 12, N = 73, RA subjects on MTX
[3] = 100 mg bid, Week 4, N = 79, RA subjects on MTX
[4] = 100 mg bid, Week 12, N = 79, RA subjects on MTX
[5] = 100 mg qd, Week 4, N = 68, RA subjects on MTX
[6] = 100 mg qd, Week 12, N = 68, RA subjects on MTX
[7] = 200 mg qd, Week 4, N = 75, RA subjects on MTX
[8] = 200 mg qd, Week 12, N = 75, RA subjects on MTX

O=C(Nc1nc2cccc(-c3ccc(CN4CCS(=O)(=O)CC4)cc3)n2n1)C1CC1 [Compound 1, cyclopropanecarboxylic acid {5-[4-(1,1-dioxo-thiomorpholin-4-ylmethyl)-phenyl]-[1,2,4]triazolo[1,5-a]pyridin-2yl}-amide]
IL-10 Mean change from baseline at Week 4 (IL-10; [1]): -2.1 pg/mL
IL-10 Mean change from baseline at Week 12 (IL-10; [2]): -3.7 pg/mL
IL-10 Mean change from baseline at Week 4 (IL-10; [3]): -3.3 pg/mL
IL-10 Mean change from baseline at Week 12 (IL-10; [4]): -4.2 pg/mL
IL-10 Mean change from baseline at Week 4 (IL-10; [5]): 0.1 pg/mL
IL-10 Mean change from baseline at Week 12 (IL-10; [6]): -0.1 pg/mL
IL-10 Mean change from baseline at Week 4 (IL-10; [7]): -0.5 pg/mL
IL-10 Mean change from baseline at Week 12 (IL-10; [8]): -1.5 pg/mL
MIP-1β Mean change from baseline at Week 4 (MIP-1β; [1]): 0.4 pg/mL
MIP-1β Mean change from baseline at Week 12 (MIP-1β; [2]): -1.1 pg/mL
MIP-1β Mean change from baseline at Week 4 (MIP-1β; [3]): -2.1 pg/mL
MIP-1β Mean change from baseline at Week 12 (MIP-1β; [4]): -1.3 pg/mL
MIP-1β Mean change from baseline at Week 4 (MIP-1β; [5]): -0.7 pg/mL
MIP-1β Mean change from baseline at Week 12 (MIP-1β; [6]): -1.7 pg/mL
MIP-1β Mean change from baseline at Week 4 (MIP-1β; [7]): -1.6 pg/mL
MIP-1β Mean change from baseline at Week 12 (MIP-1β; [8]): -1.5 pg/mL
IL-17α Mean change from baseline at Week 4 (IL-17A; [1]): -4.4 pg/mL
IL-17α Mean change from baseline at Week 12 (IL-17A; [2]): -3.3 pg/mL
IL-17α Mean change from baseline at Week 4 (IL-17A; [3]): 3.9 pg/mL
IL-17α Mean change from baseline at Week 12 (IL-17A; [4]): -1.9 pg/mL
IL-17α Mean change from baseline at Week 4 (IL-17A; [5]): -5.9 pg/mL
IL-17α Mean change from baseline at Week 12 (IL-17A; [6]): -7.4 pg/mL
IL-17α Mean change from baseline at Week 4 (IL-17A; [7]): -1.6 pg/mL
IL-17α Mean change from baseline at Week 12 (IL-17A; [8]): -0.9 pg/mL
IL-1βb Mean change from baseline at Week 4 (IL-1β; [1]): 1.4 pg/mL
IL-1βb Mean change from baseline at Week 12 (IL-1β; [2]): -0.9 pg/mL
IL-1βb Mean change from baseline at Week 4 (IL-1β; [3]): -1.0 pg/mL
IL-1βb Mean change from baseline at Week 12 (IL-1β; [4]): -1.8 pg/mL
IL-1βb Mean change from baseline at Week 4 (IL-1β; [5]): -0.6 pg/mL
IL-1βb Mean change from baseline at Week 12 (IL-1β; [6]): -1.2 pg/mL
IL-1βb Mean change from baseline at Week 4 (IL-1β; [7]): -0.6 pg/mL
IL-1βb Mean change from baseline at Week 12 (IL-1β; [8]): -1.6 pg/mL
IL-2 Mean change from baseline at Week 4 (IL-2; [1]): -0.2 pg/mL
IL-2 Mean change from baseline at Week 12 (IL-2; [2]): -1.9 pg/mL
IL-2 Mean change from baseline at Week 4 (IL-2; [3]): -2.3 pg/mL
IL-2 Mean change from baseline at Week 12 (IL-2; [4]): -4.1 pg/mL
IL-2 Mean change from baseline at Week 4 (IL-2; [5]): -1.9 pg/mL
IL-2 Mean change from baseline at Week 12 (IL-2; [6]): -3.5 pg/mL
IL-2 Mean change from baseline at Week 4 (IL-2; [7]): -2.0 pg/mL
IL-2 Mean change from baseline at Week 12 (IL-2; [8]): -3.3 pg/mL
IL-4 Mean change from baseline at Week 4 (IL-4; [1]): -0.3 pg/mL
IL-4 Mean change from baseline at Week 12 (IL-4; [2]): -2.1 pg/mL
IL-4 Mean change from baseline at Week 4 (IL-4; [3]): -2.7 pg/mL
IL-4 Mean change from baseline at Week 12 (IL-4; [4]): -2.7 pg/mL
IL-4 Mean change from baseline at Week 4 (IL-4; [5]): 0.8 pg/mL
IL-4 Mean change from baseline at Week 12 (IL-4; [6]): -1.6 pg/mL
IL-4 Mean change from baseline at Week 4 (IL-4; [7]): 0.2 pg/mL
IL-4 Mean change from baseline at Week 12 (IL-4; [8]): -2.5 pg/mL
IL-5 Mean change from baseline at Week 4 (IL-5; [1]): -18.2 pg/mL
IL-5 Mean change from baseline at Week 12 (IL-5; [2]): -18.1 pg/mL
IL-5 Mean change from baseline at Week 4 (IL-5; [3]): -0.8 pg/mL
IL-5 Mean change from baseline at Week 12 (IL-5; [4]): -1.5 pg/mL
IL-5 Mean change from baseline at Week 4 (IL-5; [5]): -0.2 pg/mL
IL-5 Mean change from baseline at Week 12 (IL-5; [6]): -0.7 pg/mL
IL-5 Mean change from baseline at Week 4 (IL-5; [7]): 0.1 pg/mL
IL-5 Mean change from baseline at Week 12 (IL-5; [8]): 0.0 pg/mL
